In brackets after ≈: the same amount, converted by molar mass. Counter-ions that a name gives are not always drawn.
Key:
[1] = Hygroscopicity (VTI); assay type: physicochemical; conditions: free base form
[2] = Caco-2 permeability; assay type: in vitro ADME; conditions: human, Caco-2, free base form; for efflux ratio: read-out: B-A/A-B ratio
[3] = test system: Caco-2; experiment: Caco-2 permeability; assay type: in vitro ADME; conditions: free base form
[4] = Dynamic vapor sorption; assay type: physicochemical
[5] = Single excipient solubility screen; assay type: physicochemical
Text: A single excipient screen was completed in an attempt to find an appropriate excipient for a liquid formulation of LSN 487355. […]

[6] = pKa; assay type: physicochemical; conditions: free base form
[7] = Solubility in various solvents/solubilizing mixtures; assay type: physicochemical
Text: The solubility of LSN 487355 in a variety of vehicles is illustrated in Table III.

Compound: Cc1onc2c1c(=O)n([C@H]1CCC[C@@H](NC(=O)[C@@H](O)c3ccc(F)nc3)C1)c1cccc(Cl)c21 [LSN 509207]
- Hygroscopicity (VTI) [1]: Non-hygroscopic
- Papp [2]: 7.4 ×10⁻⁶ cm/s
- efflux ratio [2]: 2.7
- Permeability class [3]: Borderline high

Compound: Cc1onc2c1c(=O)n([C@H]1CCC[C@@H](CNC(=O)c3ccc(F)nc3)C1)c1cccc(Cl)c21 [LSN 487355 phosphate salt]
- Moisture sorption isotherm ([4]; dynamic vapor sorption): significant moisture sorption isotherm
- Relative humidity at which deliquescence begins ([4]; dynamic vapor sorption): 80-90 % RH
- Crystallinity in dynamic vapor sorption ([4]; equilibrated under flowing nitrogen (0% RH)): loss of crystallinity
- solubility ([5]; oil or lipid, excipient labrasol (FIG. 13)): ≥ 20000 µg/mL
- solubility ([5]; organic solvent or mixture, excipient PEG-600 (FIG. 13)): ≥ 20000 µg/mL

Compound: Cc1onc2c1c(=O)n([C@H]1CCC[C@@H](CNC(=O)c3ccc(F)nc3)C1)c1cccc(Cl)c21 [LSN 487355]
- Hygroscopicity (VTI) [1]: Non-hygroscopic
- pKa [6]: 3.77
- Papp [2]: 7.9 ×10⁻⁶ cm/s
- efflux ratio [2]: 2.3
- Permeability class [3]: Borderline high
- solubility ([7]; 4% DMSO in deionized water, kinetic from dmso stock, 4% DMSO, compound dissolved in solvent first, then deionized water added): 2 µg/mL (≈ 0.00427 mM)
- solubility ([7]; 5% N-methyl-2-pyrrolidone in deionized water, aqueous with cosolvent or surfactant or cyclodextrin, kinetic from dmso stock, 5% N-methyl-2-pyrrolidone, compound dissolved in solvent first, then deionized water added): 4 µg/mL (≈ 0.00853 mM)
- solubility ([7]; 10% DMSO in deionized water, aqueous with cosolvent or surfactant or cyclodextrin, kinetic from dmso stock, 10% DMSO, compound dissolved in solvent first, then deionized water added): 4 µg/mL (≈ 0.00853 mM)
- solubility ([7]; 10% N-methyl-2-pyrrolidone in deionized water, aqueous with cosolvent or surfactant or cyclodextrin, kinetic from dmso stock, 10% N-methyl-2-pyrrolidone, compound dissolved in solvent first, then deionized water added): 30 µg/mL (≈ 0.064 mM)
- solubility ([7]; Capmul PG8, oil or lipid): 12000 to 15000 µg/mL (≈ 25.6 to 32 mM)
- solubility ([7]; DMA, organic solvent or mixture): 208000 to 416000 µg/mL (≈ 444 to 887 mM)
- solubility ([7]; Ethanol, organic solvent or mixture): 1400 µg/mL (≈ 2.99 mM)
- solubility ([7]; Ethyl Oleate, oil or lipid): < 2000 µg/mL
- solubility ([7]; Ethyl acetate, organic solvent or mixture): 3 µg/mL (≈ 0.0064 mM)
- solubility ([7]; Glycofurol, organic solvent or mixture): > 2000 µg/mL
- solubility ([7]; Labrafac Hydro WL 219, oil or lipid): > 2000 µg/mL
- solubility ([7]; Labrafac Lipophile WL 1349, oil or lipid): < 2000 µg/mL
- solubility ([7]; Labrafil M1944CS, oil or lipid): < 2000 µg/mL
- solubility ([7]; Labrafil M2125CS, oil or lipid): < 2000 µg/mL
- solubility ([7]; Labrasol, oil or lipid): 4000 to 5000 µg/mL (≈ 8.53 to 10.7 mM)
- solubility ([7]; NMP, organic solvent or mixture): > 563000 µg/mL
- solubility ([7]; Olive oil, oil or lipid): < 2000 µg/mL
- solubility ([7]; PEG 300, organic solvent or mixture): > 2000 µg/mL
- solubility ([7]; Phosphal 50 PG, oil or lipid): > 2000 µg/mL
- solubility ([7]; Phosphal 53 MCT, oil or lipid): > 2000 µg/mL
- solubility ([7]; Propylene Glycol, organic solvent or mixture): < 2000 µg/mL
- solubility ([7]; Safflower oil, oil or lipid): < 2000 µg/mL
- solubility ([7]; Soybean oil, oil or lipid): < 2000 µg/mL
- solubility ([7]; organic solvent or mixture, DMSO, measured visually at about 50 mg/mL, all compound dissolved): ≥ 51000 µg/mL
- solubility ([7]; organic solvent or mixture, N-methyl-2-pyrrolidone, measured visually at about 50 mg/mL, all compound dissolved): ≥ 52000 µg/mL
